test system: venous thrombosis; test: venous thrombosis test in rats (venous stasis with hypercoagulation, Wessler technique, factor Xa), oral administration; type: in vivo; settings: dose 6 mg/kg, thrombosis induced 2 h after administration, male Wistar rats
Experimental: The antithrombotic activity of the compounds according to the invention was studied in vivo in rats by virtue of a test that reproduces a venous thrombosis. The venous thrombosis was induced according to the protocol described in Thromb. Haemost. 1992, 67 (1), 176-179. The activity by oral administration was studied according to the following operating protocol: The experiment is carried out on male Wistar rats, not fasting, weighing 250 to 280 g and divided up into groups, each of 8 to 10 animals. The test products are administered orally (by tube) in solution or in suspension in a solution of methylcellulose (0.5% in water). The concentration of the compounds is calculated such that an amount of solution of 10 ml/kg is absorbed orally. A thrombosis is induced at a time T (between 2 hours and 8 hours) after administration of the product, and the thrombus formed is removed and weighed. In order to induce this thrombosis, a venous stasis with hypercoagulation is produced, according to the technique described by WESSLER (J. Applied Physiol. 1959, 943-946) using, as hypercoagulating agent, a solution of activated factor X (Xa), supplied by the company Biogenic (Montpellier), and having a concentration of 7.5 nKat/kg. The venous stasis is produced exactly 10 seconds after the injection of the hypercoagulating agent. The activity of the compounds tested was verified at various doses, after they were administered. The thrombosis was induced between 2 hours and 8 hours after administration of the compound.

**Q.** Which “Activity (%): percentage inhibition of the formation of the thrombus relative to the weight of the thrombus formed in the absence of the compound” value does the source give for `O[C@@H]1[C@@H](O)[C@H](Oc2cccn3ncnc23)SC[C@H]1O` [Example 39, [1,2,4]triazolo[1,5-a]pyridin-8-yl 5-thio-β-D-xylopyranoside] here?
**A.** 100%

**Q.** For `Cc1nc2cc(O[C@@H]3SC[C@@H](O)[C@H](O)[C@H]3O)ccc2s1` [Example 12, 2-methyl-5-benzothiazolyl 5-thio-β-D-xylopyranoside], which “Activity (%): percentage inhibition of the formation of the thrombus relative to the weight of the thrombus formed in the absence of the compound” value is on record?
**A.** 74%

**Q.** How did the “Activity (%): percentage inhibition of the formation of the thrombus relative to the weight of the thrombus formed in the absence of the compound” value turn out when `O[C@@H]1[C@@H](O)[C@H](Oc2cccc3ocnc23)SC[C@H]1O` [Example 16, 4-benzoxazolyl 5-thio-β-D-xylopyranoside] was run?
**A.** 80%

**Q.** How did the “Activity (%): percentage inhibition of the formation of the thrombus relative to the weight of the thrombus formed in the absence of the compound” value turn out when `O=C(O)C(F)(F)F.O=C(O)Cc1cn2cccc(O[C@@H]3SC[C@@H](O)[C@H](O)[C@H]3O)c2n1` [Example 43, 8-[(5-thio-β-D-xylopyranosyl)oxy]-imidazo[1,2-α]pyridine-2-acetic acid, salt with trifluoroacetic acid] was run?
**A.** 53%

**Q.** For `CC(=O)c1cc2cccc(O[C@@H]3SC[C@@H](O)[C@H](O)[C@H]3O)c2o1` [Example 8, 2-acetyl-7-benzofuranyl 5-thio-β-D-xylopyranoside], which “Activity (%): percentage inhibition of the formation of the thrombus relative to the weight of the thrombus formed in the absence of the compound” value is on record?
**A.** 91%

**Q.** Which “Activity (%): percentage inhibition of the formation of the thrombus relative to the weight of the thrombus formed in the absence of the compound” value does the source give for `Cc1cn2cccc(O[C@@H]3SC[C@@H](O)[C@H](O)[C@H]3O)c2n1` [Example 2, 2-methylimidazo[1,2-α]pyridin-8-yl 5-thio-β-D-xylopyranoside] here?
**A.** 94%

**Q.** How did the “Activity (%): percentage inhibition of the formation of the thrombus relative to the weight of the thrombus formed in the absence of the compound” value turn out when `O[C@@H]1[C@@H](O)[C@H](Oc2cccc3ccoc23)SC[C@H]1O` [Example 18, 7-benzofuranyl 5-thio-β-D-xylopyranoside] was run?
**A.** 62%
